Laboratory results published in patent publication US20190111059A1, “COMPOSITIONS AND METHODS FOR TREATING AUTISM SPECTRUM DISORDER” (Marinus Pharmaceuticals, Inc., priority 2017, published 2019).
“Also recorded” adds a separate entry of the source. Structures can show the parent of a compound that is named as a salt.

Legend:
[1] = test system: children with non-syndromic autism spectrum disorder (ASD) and language impairment; test: Randomized placebo-controlled trial: adverse effects monitoring; format: in vivo, human
Text: Adverse events were monitored every 3 weeks using a modification of the Dosage Record Treatment Emergent Symptom Scale. Adverse events were considered related to the treatment if they started or worsened following the start of the trial. If adverse events were persistent or severe, the parents were offered the option of halving the dose or discontinuing the intervention. The dose could only be reduced once and was never increased if reduced.
The total number of patients reporting each adverse event was compared across treatment groups using a Fisher exact test. Adverse events that were possibly, probably or definitely related to the treatments were analyzed.

[2] = test system: children with non-syndromic autism spectrum disorder (ASD) and language impairment; test: Randomized placebo-controlled trial: Autism Impact Measure (AIM); format: in vivo, human; conditions: lower = less impact
Method: The Autism Impact Measure (“AIM”) is a 45-item parent-reported measure of the frequency and impact of core ASD symptoms during the past 2 weeks using two 5-point scales of increasing severity ranging from 1 to 5.51 The Frequency and Impact scores range 45-225. This two-arm double-blind randomized placebo-controlled parallel study with a 1:1 allocation was performed at Arkansas Children's Research Institute (Little Rock, Ark., USA) from 4 Jun. 2012 to 22 Nov. 2013. Parent and teacher questionnaires were requested at baseline and 6 and 12 weeks after starting treatment. Parents were asked to deliver baseline questionnaires to teachers or therapists. After the first visit, questionnaires were mailed to the parents and teachers at least 1 week prior to the target date of completion. Parents were asked to bring the completed teacher and parent 12-week questionnaires to the final assessment. Other questionnaires were returned in a preaddressed postage-paid envelope. The target dose of the intervention (INN: DL folinic acid calcium salt; USAN: leucovorin calcium) was 2 mg kg^−1 per day (maximum 50 mg per day) in two equally divided doses with half of the target dose given during the first 2 weeks. Dye-free, milk-product-free, vegetarian capsules were provided in three strengths (5, 10 and 25 mg) by Lee Silsby Compounding Pharmacy (Cleveland Heights, Ohio, USA). Certificate of analysis was provided for each capsule strength by an independent analytical service (Eagle Analytical Services, Houston, Tex., USA) for each batch of capsules produced. In all cases, potency was at least 99%. Secondary outcomes. Secondary outcome measures included the Ohio Autism Clinical Impression Scale (OACIS), Vineland Adaptive Behavior Scale 2nd Edition (VABS) Survey Interview Form and several questionnaires. Parents and teachers were asked to complete the Aberrant Behavior Checklist (ABC), Social Responsiveness Scale (SRS) and Behavioral Assessment System for Children 2nd Edition (BASC). Only parents were asked to complete the Autism Impact Measure (AIM) and Autism Symptoms Questionnaire (ASQ). Secondary outcome measures were analyzed using the mixed-model regression. Because of the large number of secondary outcomes, correction for multiple comparisons was conducted using the false discovery rate.

[3] = test system: children with non-syndromic autism spectrum disorder (ASD) and language impairment; test: Randomized placebo-controlled trial: Behavioral Assessment System for Children (BASC); format: in vivo, human; conditions: for BASC Internalizing problems, estimated effect: calcium salt
Method: The Behavioral Assessment System for Children 2nd Edition (“BASC”) ranges from 185 to 306 items and is validated in ASD. Each item is rated 0 to 3 with higher scores indicating greater severity. Standardized T-Scores (mean 50, standard deviation 10) range 20-120 for externalizing, internalizing and behavioral symptoms and 10-90 for adaptive skills. This two-arm double-blind randomized placebo-controlled parallel study with a 1:1 allocation was performed at Arkansas Children's Research Institute (Little Rock, Ark., USA) from 4 Jun. 2012 to 22 Nov. 2013. Parent and teacher questionnaires were requested at baseline and 6 and 12 weeks after starting treatment. Parents were asked to deliver baseline questionnaires to teachers or therapists. After the first visit, questionnaires were mailed to the parents and teachers at least 1 week prior to the target date of completion. Parents were asked to bring the completed teacher and parent 12-week questionnaires to the final assessment. Other questionnaires were returned in a preaddressed postage-paid envelope. The target dose of the intervention (INN: DL folinic acid calcium salt; USAN: leucovorin calcium) was 2 mg kg^−1 per day (maximum 50 mg per day) in two equally divided doses with half of the target dose given during the first 2 weeks. Dye-free, milk-product-free, vegetarian capsules were provided in three strengths (5, 10 and 25 mg) by Lee Silsby Compounding Pharmacy (Cleveland Heights, Ohio, USA). Certificate of analysis was provided for each capsule strength by an independent analytical service (Eagle Analytical Services, Houston, Tex., USA) for each batch of capsules produced. In all cases, potency was at least 99%. Secondary outcomes. Secondary outcome measures included the Ohio Autism Clinical Impression Scale (OACIS), Vineland Adaptive Behavior Scale 2nd Edition (VABS) Survey Interview Form and several questionnaires. Parents and teachers were asked to complete the Aberrant Behavior Checklist (ABC), Social Responsiveness Scale (SRS) and Behavioral Assessment System for Children 2nd Edition (BASC). Only parents were asked to complete the Autism Impact Measure (AIM) and Autism Symptoms Questionnaire (ASQ). Secondary outcome measures were analyzed using the mixed-model regression. Because of the large number of secondary outcomes, correction for multiple comparisons was conducted using the false discovery rate.

[4] = test system: children with neurodevelopmental regression and neurological abnormalities (cerebral folate deficiency); conditions: six children with cerebral folate deficiency; cited from earlier work
[5] = folinic acid group n = 21, 12 weeks
[6] = vs placebo, mixed-model regression
[7] = vs placebo, mixed-model regression, lower = better

Nc1nc2c(c(=O)[nH]1)N(C=O)C(CNc1ccc(C(=O)N[C@@H](CCC(=O)O)C(=O)O)cc1)CN2 (mixture of isomers) [Folinic acid, DL folinic acid calcium salt]
Adverse effects, difference between treatment groups (folinic acid vs placebo) ([1]; 2 mg kg^−1 per day, 12 weeks, Fisher exact test, calcium salt): no significant difference; also recorded: no significant group differences | Aggression, incidence [1, 5]: (10%) | Any adverse effect, incidence [1, 5]: (57%) | Blurred vision, incidence [1, 5]: (0%) | Confusion, incidence [1, 5]: (5%) | Constipation, incidence [1, 5]: (10%) | Decreased appetite, incidence [1, 5]: (10%) | Decreased motor activity, incidence [1, 5]: (0%) | Depression, incidence [1, 5]: (5%) | Diarrhea, incidence [1, 5]: (5%) | Dizziness, incidence [1, 5]: (0%) | Drowsiness, incidence [1, 5]: (0%) | Dry mouth, excessive thirst, incidence [1, 5]: (14%) | Emotional lability, incidence [1, 5]: (5%) | Excitement or agitation, incidence [1, 5]: (29%) | Gastroesophageal reflux, incidence [1, 5]: (5%) | Headache, incidence [1, 5]: (10%) | Increased motor activity, incidence [1, 5]: (29%) | Increased salivation, incidence [1, 5]: (0%) | Increased tantrums, incidence [1, 5]: (5%) | Insomnia, incidence [1, 5]: (29%) | Involuntary movements, incidence [1, 5]: (10%) | Nasal congestion, incidence [1, 5]: (0%) | Nausea/vomiting, incidence [1, 5]: (0%) | Rash, incidence [1, 5]: (0%) | Restlessness, incidence [1, 5]: (14%) | Stiffness, incidence [1, 5]: (5%) | Sweating, incidence [1, 5]: (0%) | Tremors, incidence [1, 5]: (0%) | Weight gain, incidence [1, 5]: (10%) | Weight loss, incidence [1, 5]: (5%) | Serious adverse events ([1]; folinic acid group, 2 mg kg^−1 per day, 12 weeks): no serious adverse events | AIM Impact, 12-week assessment mean ([2]; 2 mg kg^−1 per day, 12 weeks, baseline 105): 87 Raw Scores | AIM Frequency, 12-week assessment mean ([2]; 2 mg kg^−1 per day, 12 weeks, baseline 135): 114 Raw Scores | AIM Frequency, estimated effect [2, 6]: −2.2 Raw Scores | AIM Impact, estimated effect [2, 6]: 3.4 Raw Scores | BASC Adaptive skills, 12-week assessment mean ([3]; 2 mg kg^−1 per day, 12 weeks, baseline 24.5, higher = better): 27.8 T-Scores | BASC Internalizing problems, 12-week assessment mean ([3]; 2 mg kg^−1 per day, 12 weeks, baseline 49.3, lower = better): 43.1 T-Scores | BASC Externalizing problems, 12-week assessment mean ([3]; 2 mg kg^−1 per day, 12 weeks, baseline 60.9, lower = better): 57.7 T-Scores | BASC Behavior problems, 12-week assessment mean ([3]; 2 mg kg^−1 per day, 12 weeks, baseline 71.1, lower = better): 65.3 T-Scores | BASC Adaptive skills, estimated effect ([3]; vs placebo, mixed-model regression, higher = better): 0.4 T-Scores | BASC Behavior problems, estimated effect [3, 7]: 0.1 T-Scores | BASC Externalizing problems, estimated effect [3, 7]: −0.1 T-Scores | BASC Internalizing problems, estimated effect [3, 7]: −1.1 T-Scores | BASC Internalizing problems, estimated effect ([3]; vs placebo, mixed-model regression, lower = better, listed as folinic acid): significantly improved | CSF folate concentrations [4]: normalized | Neurological symptoms [4]: significantly improved
